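Values below derive from 48-hour exposures of cells grown in 96-well plates, with endpoints linearly interpolated between the two concentrations bracketing the appropriate inhibition level. GI50 = concentration required for 50% inhibition of growth.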 Active and inactive are the calls of the source. Rule as the data show it: active = GI50 up to about 1.1 µM and inactive = higher.
Columns and labels:
Assay in all cases: NCI anticancer screen, dose series, 48 h
SK-MEL-2 = system: SK-MEL-2
UACC-257 = system: UACC-257
MOLT-4 = system: MOLT-4
U-251 = system: U-251
NCI-H460 = system: NCI-H460
NCI-H23 = system: NCI-H23
ACHN = system: ACHN
KM12 = system: KM12
CAKI-1 = system: CAKI-1
KM-20L2 = system: KM-20L2
EKVX = system: EKVX
786-0 = system: 786-0
CCRF-CEM = system: CCRF-CEM
A549 = system: A549
OVCAR-4 = system: OVCAR-4
A498 = system: A498
SNB-75 = system: SNB-75
COLO 205 = system: COLO 205
SW-620 = system: SW-620
MDA-MB-231 = system: MDA-MB-231

Measured: GI50

COC(=O)C1=C(O)c2cc(-c3ccccc3)c(-c3ccccc3)c(C#N)c2NC(=O)C1
inactive: SK-MEL-2 40.8 µM | UACC-257 91.8 µM | MOLT-4 2.46 µM | U-251 7.69 µM | NCI-H460 3.7 µM | NCI-H23 > 100 µM | ACHN 24 µM | KM12 7.01 µM | CAKI-1 7.03 µM | KM-20L2 13.1 µM | EKVX > 100 µM | 786-0 8.38 µM | CCRF-CEM 7.14 µM | A549 3.5 µM | OVCAR-4 27.2 µM | A498 33.9 µM | SNB-75 16.8 µM | COLO 205 6.08 µM

Cc1cc2c(C)n[nH]c2c(C(=O)O)c1C
inactive: SK-MEL-2 > 100 µM | UACC-257 > 100 µM | SW-620 > 100 µM | MOLT-4 > 100 µM | U-251 > 100 µM | NCI-H460 > 100 µM | NCI-H23 85.7 µM | ACHN > 100 µM | KM12 > 100 µM | CAKI-1 > 100 µM | KM-20L2 > 100 µM | EKVX > 100 µM | 786-0 > 100 µM | CCRF-CEM > 100 µM | A549 > 100 µM | OVCAR-4 51.6 µM | A498 > 100 µM | SNB-75 > 100 µM | COLO 205 > 100 µM

COc1cc2c(cc1OC)C1Cc3cc(OC)c(OC)cc3N1CC2 (stereo unspecified)
inactive: SK-MEL-2 52.4 µM | UACC-257 42 µM | SW-620 29.9 µM | MOLT-4 30.8 µM | U-251 35.4 µM | NCI-H460 40.2 µM | NCI-H23 29.5 µM | ACHN 22.3 µM | KM12 28.6 µM | CAKI-1 21.9 µM | KM-20L2 38.6 µM | EKVX 27.7 µM | 786-0 17.7 µM | CCRF-CEM 43.5 µM | A549 26.9 µM | OVCAR-4 18.9 µM | A498 40.5 µM | SNB-75 21.4 µM | COLO 205 20.5 µM

CS(=O)(=O)CS(=O)(=O)OCCCl
inactive: SK-MEL-2 304 µM | UACC-257 169 µM | SW-620 115 µM | MOLT-4 96.2 µM | U-251 72.3 µM | NCI-H460 83.6 µM | NCI-H23 143 µM | ACHN 124 µM | KM12 339 µM | CAKI-1 207 µM | KM-20L2 565 µM | EKVX 366 µM | 786-0 61.2 µM | CCRF-CEM 47 µM | A549 220 µM | OVCAR-4 403 µM | A498 527 µM | SNB-75 46.8 µM | MDA-MB-231 296 µM | COLO 205 276 µM

Brc1ccccc1/C=N\C12CC3CC(CC(C3)C1)C2
inactive: SK-MEL-2 > 81.3 µM | UACC-257 > 79.4 µM | SW-620 3.9 µM | MOLT-4 4.75 µM | U-251 12.9 µM | NCI-H460 > 100 µM | NCI-H23 > 65 µM | ACHN > 68.2 µM | KM12 > 100 µM | CAKI-1 24.8 µM | KM-20L2 > 100 µM | EKVX > 100 µM | 786-0 > 52.8 µM | CCRF-CEM 4.54 µM | A549 > 100 µM | OVCAR-4 > 100 µM | A498 > 100 µM | SNB-75 38.2 µM | MDA-MB-231 > 100 µM | COLO 205 > 100 µM

O=C(/C=C/c1ccc(Cl)cc1)c1ccncc1
inactive: SK-MEL-2 > 100 µM | UACC-257 43.5 µM | SW-620 78 µM | MOLT-4 27 µM | U-251 44 µM | NCI-H460 59.7 µM | NCI-H23 > 100 µM | ACHN 35.9 µM | KM12 26 µM | CAKI-1 30.8 µM | KM-20L2 35.9 µM | EKVX 64.4 µM | 786-0 76.2 µM | CCRF-CEM 43.7 µM | A549 58.5 µM | OVCAR-4 22.5 µM | A498 27 µM | SNB-75 22.1 µM | COLO 205 > 100 µM

Cc1nc2ccccc2[s+]c1-c1cnc(NC#N)nc1C(=O)Nc1cccc(Cl)c1
inactive: SK-MEL-2 > 100 µM | UACC-257 > 100 µM | SW-620 > 100 µM | MOLT-4 > 100 µM | U-251 > 100 µM | NCI-H460 > 100 µM | NCI-H23 > 100 µM | ACHN > 100 µM | KM12 > 100 µM | CAKI-1 > 100 µM | KM-20L2 > 100 µM | EKVX > 100 µM | 786-0 > 100 µM | CCRF-CEM > 100 µM | A549 > 100 µM | OVCAR-4 > 100 µM | A498 > 100 µM | SNB-75 > 100 µM | COLO 205 > 100 µM

CCCNCCCCC(NC(C)=O)C(=O)NCc1ccccc1 (stereo unspecified)
inactive: SK-MEL-2 > 100 µM | UACC-257 > 100 µM | SW-620 > 100 µM | MOLT-4 > 100 µM | U-251 > 100 µM | NCI-H460 > 100 µM | NCI-H23 > 100 µM | ACHN > 100 µM | KM12 > 100 µM | CAKI-1 > 100 µM | KM-20L2 > 100 µM | EKVX > 100 µM | 786-0 > 100 µM | CCRF-CEM > 100 µM | A549 > 100 µM | OVCAR-4 > 100 µM | A498 > 100 µM | SNB-75 25.2 µM | COLO 205 > 100 µM

N#CC(C(=O)C(=O)C(C#N)c1ccc(Br)cc1)c1ccc(Br)cc1 (stereo unspecified)
inactive: SK-MEL-2 13.9 µM | UACC-257 11.9 µM | SW-620 14.7 µM | MOLT-4 4.4 µM | U-251 11.6 µM | NCI-H460 16 µM | NCI-H23 3.91 µM | ACHN 12.6 µM | KM12 10.6 µM | CAKI-1 21 µM | KM-20L2 12.2 µM | EKVX 12 µM | 786-0 12.9 µM | CCRF-CEM 4.47 µM | A549 23.3 µM | OVCAR-4 12.3 µM | A498 15.8 µM | SNB-75 5.13 µM | COLO 205 16.5 µM

CC(=O)c1ccc(-c2ccc(C(C)=O)s2)s1
inactive: SK-MEL-2 > 100 µM | UACC-257 > 100 µM | SW-620 > 100 µM | MOLT-4 > 100 µM | U-251 > 100 µM | NCI-H460 > 100 µM | NCI-H23 > 100 µM | ACHN > 100 µM | KM12 > 100 µM | CAKI-1 > 100 µM | KM-20L2 > 100 µM | EKVX > 100 µM | 786-0 > 100 µM | CCRF-CEM > 100 µM | A549 > 100 µM | OVCAR-4 > 100 µM | A498 1.94 µM | SNB-75 > 100 µM | COLO 205 > 100 µM
